Reference: ChEMBL document CHEMBL5465560, “Selectivity Literature for EUbOPEN Chemogenomic Library” (2024)

Experiments:
[1] = test system: Fibroblast growth factor receptor 3 (Homo sapiens), P22607 [G697C]; test: (§1) Selectivity interaction (KinomeScan (DiscoverX)) EUB0000666a FGFR3; conditions: at 10 µM
[2] = target: Fibroblast growth factor receptor 3 (Homo sapiens, UniProt P22607); test: as §1; conditions: at 10 µM
[3] = target: Protein kinase C delta type (Homo sapiens) (UniProt Q05655); test: Selectivity interaction (Kinase panel (Invitrogen)) EUB0000639a PRKCD; conditions: at 200 nM
Sequence of Protein kinase C delta type (Homo sapiens) (Q05655 whole entry, looked up): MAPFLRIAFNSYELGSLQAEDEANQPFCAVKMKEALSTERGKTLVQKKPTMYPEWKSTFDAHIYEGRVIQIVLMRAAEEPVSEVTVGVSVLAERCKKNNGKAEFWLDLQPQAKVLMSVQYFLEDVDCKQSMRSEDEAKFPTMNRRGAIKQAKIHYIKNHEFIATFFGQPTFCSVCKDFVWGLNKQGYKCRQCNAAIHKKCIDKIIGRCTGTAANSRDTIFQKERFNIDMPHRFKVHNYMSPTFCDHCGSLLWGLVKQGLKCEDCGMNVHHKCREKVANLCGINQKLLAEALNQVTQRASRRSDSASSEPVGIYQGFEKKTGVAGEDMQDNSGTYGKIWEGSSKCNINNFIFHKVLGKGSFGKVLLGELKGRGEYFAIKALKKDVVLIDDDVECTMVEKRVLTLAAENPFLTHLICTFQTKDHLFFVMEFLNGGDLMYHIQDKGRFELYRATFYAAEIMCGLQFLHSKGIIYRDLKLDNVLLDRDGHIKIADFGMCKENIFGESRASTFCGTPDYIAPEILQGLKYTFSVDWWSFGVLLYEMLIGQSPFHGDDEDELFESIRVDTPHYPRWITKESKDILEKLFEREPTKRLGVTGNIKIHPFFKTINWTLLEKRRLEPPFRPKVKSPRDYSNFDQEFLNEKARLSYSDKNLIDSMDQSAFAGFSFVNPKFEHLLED

[4] = target: T1, Inhibitor of nuclear factor kappa-B kinase subunit beta (Homo sapiens) (UniProt O14920); test: Selectivity interaction (Ambit KINOMEscan and KiNATiv profiling in Jurkat cells) EUB0000090b IKBKB; format: cell-based; conditions: at 1 µM
T1 sequence (whole entry): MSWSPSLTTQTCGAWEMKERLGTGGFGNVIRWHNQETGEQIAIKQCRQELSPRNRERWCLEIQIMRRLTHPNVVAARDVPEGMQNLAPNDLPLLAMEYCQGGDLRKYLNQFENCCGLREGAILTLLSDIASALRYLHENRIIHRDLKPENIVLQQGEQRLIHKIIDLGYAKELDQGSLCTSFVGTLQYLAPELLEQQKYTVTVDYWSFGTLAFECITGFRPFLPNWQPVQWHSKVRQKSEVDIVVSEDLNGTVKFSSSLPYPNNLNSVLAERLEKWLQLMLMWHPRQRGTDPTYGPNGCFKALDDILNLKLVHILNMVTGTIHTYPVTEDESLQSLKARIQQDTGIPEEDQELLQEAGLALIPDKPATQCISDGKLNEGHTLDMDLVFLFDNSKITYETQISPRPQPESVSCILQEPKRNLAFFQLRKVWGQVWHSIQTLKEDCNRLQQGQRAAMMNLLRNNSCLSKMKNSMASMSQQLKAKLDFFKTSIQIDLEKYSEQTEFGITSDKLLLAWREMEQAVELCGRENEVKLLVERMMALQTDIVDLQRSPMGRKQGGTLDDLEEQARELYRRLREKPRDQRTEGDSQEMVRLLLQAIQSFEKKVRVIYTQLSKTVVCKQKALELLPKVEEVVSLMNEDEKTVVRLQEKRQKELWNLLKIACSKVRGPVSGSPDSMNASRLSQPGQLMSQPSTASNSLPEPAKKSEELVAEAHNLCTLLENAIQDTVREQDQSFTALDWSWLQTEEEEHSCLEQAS

[5] = target: T2, Serine/threonine-protein kinase ICK (Homo sapiens) (UniProt Q9UPZ9); test: Selectivity interaction (KinomeScan (DiscoverX)) EUB0000045b ICK
T2 sequence (whole entry): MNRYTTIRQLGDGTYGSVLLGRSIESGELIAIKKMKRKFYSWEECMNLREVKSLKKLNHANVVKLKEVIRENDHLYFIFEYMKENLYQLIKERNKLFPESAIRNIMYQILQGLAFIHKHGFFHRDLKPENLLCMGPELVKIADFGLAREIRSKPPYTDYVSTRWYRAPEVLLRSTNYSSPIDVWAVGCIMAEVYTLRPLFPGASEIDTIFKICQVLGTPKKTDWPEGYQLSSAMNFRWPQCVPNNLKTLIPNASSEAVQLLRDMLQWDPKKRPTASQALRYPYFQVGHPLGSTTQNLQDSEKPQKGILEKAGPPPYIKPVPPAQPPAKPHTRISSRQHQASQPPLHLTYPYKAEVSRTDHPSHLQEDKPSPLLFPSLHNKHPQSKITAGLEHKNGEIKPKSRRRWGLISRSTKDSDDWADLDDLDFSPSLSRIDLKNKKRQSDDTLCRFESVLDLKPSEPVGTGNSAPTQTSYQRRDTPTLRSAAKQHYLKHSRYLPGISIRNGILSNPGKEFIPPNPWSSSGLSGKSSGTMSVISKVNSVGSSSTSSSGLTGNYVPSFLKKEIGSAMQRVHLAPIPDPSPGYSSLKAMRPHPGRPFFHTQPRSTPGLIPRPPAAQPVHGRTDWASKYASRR

[6] = target: Eukaryotic elongation factor 2 kinase (Homo sapiens, UniProt O00418)
Sequence of Eukaryotic elongation factor 2 kinase (O00418 whole entry): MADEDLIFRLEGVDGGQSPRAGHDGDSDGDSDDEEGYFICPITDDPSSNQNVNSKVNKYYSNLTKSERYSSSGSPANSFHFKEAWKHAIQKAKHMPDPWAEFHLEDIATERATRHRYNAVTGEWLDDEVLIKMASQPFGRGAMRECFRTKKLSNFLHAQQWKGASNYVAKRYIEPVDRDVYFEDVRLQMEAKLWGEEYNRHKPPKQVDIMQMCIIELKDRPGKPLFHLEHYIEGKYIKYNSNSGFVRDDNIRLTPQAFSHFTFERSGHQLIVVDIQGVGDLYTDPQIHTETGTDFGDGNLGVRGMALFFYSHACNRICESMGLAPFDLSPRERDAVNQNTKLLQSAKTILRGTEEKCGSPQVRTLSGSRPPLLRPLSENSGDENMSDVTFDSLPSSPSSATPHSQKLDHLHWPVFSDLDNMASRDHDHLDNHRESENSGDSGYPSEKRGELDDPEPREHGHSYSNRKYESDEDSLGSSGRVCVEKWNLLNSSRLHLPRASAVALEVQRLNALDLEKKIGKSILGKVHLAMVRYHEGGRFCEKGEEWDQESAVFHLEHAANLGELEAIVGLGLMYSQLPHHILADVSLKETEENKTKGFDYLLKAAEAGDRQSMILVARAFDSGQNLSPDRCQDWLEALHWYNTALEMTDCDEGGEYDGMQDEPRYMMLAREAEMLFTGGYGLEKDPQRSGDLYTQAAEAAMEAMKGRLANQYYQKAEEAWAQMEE

[7] = target: T3, Muscarinic acetylcholine receptor M1 (Homo sapiens) (UniProt P11229); test: Selectivity interaction (Panel of kinases, GPCRs, ion channels and transporters (enzymatic assay)) EUB0000266bCl CHRM1
T3 sequence (whole entry): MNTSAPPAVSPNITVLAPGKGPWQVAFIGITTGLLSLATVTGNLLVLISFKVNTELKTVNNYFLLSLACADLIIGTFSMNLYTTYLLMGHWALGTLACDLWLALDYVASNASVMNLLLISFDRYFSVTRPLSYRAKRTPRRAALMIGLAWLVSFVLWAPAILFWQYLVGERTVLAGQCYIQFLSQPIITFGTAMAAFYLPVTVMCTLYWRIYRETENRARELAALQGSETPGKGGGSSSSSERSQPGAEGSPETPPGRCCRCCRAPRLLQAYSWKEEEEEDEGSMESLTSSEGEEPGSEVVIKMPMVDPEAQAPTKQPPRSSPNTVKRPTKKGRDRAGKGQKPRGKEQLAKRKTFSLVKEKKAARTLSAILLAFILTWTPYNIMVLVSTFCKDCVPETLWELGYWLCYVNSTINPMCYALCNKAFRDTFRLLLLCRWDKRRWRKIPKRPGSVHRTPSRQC

[8] = target: Mitogen-activated protein kinase 10 (Homo sapiens, UniProt P53779); test: Selectivity interaction (SelectScreen profiling (Invitrogen)) EUB0000607a MAPK10; conditions: at 2 µM
Sequence of Mitogen-activated protein kinase 10 (P53779 whole entry): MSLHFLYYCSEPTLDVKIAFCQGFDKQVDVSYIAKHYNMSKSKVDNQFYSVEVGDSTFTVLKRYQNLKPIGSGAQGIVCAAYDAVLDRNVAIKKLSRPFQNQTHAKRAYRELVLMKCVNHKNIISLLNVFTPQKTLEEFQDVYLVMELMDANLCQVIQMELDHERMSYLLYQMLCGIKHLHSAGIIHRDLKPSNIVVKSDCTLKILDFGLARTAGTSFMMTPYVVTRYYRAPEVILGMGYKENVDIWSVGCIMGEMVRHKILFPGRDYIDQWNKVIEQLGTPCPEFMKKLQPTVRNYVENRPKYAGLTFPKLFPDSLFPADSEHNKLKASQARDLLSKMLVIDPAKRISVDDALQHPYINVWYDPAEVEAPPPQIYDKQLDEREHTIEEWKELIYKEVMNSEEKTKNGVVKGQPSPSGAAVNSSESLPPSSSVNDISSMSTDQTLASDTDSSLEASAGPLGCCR

[9] = target: T4, Myotonin-protein kinase (Homo sapiens) (UniProt Q09013); test: Selectivity interaction (LanthaScreen Eu Kinase Binding Assay) EUB0001632a DMPK; conditions: at 10 µM
T4 sequence (whole entry): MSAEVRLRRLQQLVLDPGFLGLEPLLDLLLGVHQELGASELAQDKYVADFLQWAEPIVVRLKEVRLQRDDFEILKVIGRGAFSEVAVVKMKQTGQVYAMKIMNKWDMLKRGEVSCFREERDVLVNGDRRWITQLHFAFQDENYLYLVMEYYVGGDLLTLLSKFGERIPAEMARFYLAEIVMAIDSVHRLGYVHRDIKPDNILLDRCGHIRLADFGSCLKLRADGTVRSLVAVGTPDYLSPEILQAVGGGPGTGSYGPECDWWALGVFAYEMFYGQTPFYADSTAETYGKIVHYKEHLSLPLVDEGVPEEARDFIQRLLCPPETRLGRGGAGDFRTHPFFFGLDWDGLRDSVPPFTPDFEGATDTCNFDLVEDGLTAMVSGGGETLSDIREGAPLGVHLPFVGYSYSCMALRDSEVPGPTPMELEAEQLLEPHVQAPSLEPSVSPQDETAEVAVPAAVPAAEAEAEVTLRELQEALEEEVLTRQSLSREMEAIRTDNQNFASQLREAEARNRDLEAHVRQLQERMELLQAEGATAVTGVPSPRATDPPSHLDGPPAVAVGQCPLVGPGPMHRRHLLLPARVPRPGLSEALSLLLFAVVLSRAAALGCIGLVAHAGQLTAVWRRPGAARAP

[10] = target: Serine/threonine-protein kinase MARK2 (Homo sapiens) (UniProt Q7KZI7); test: Selectivity interaction (Kinase panel (Z-LYTE Assay)) EUB0001632a MARK2; conditions: at 10 µM
Sequence of Serine/threonine-protein kinase MARK2 (Homo sapiens) (Q7KZI7 whole entry): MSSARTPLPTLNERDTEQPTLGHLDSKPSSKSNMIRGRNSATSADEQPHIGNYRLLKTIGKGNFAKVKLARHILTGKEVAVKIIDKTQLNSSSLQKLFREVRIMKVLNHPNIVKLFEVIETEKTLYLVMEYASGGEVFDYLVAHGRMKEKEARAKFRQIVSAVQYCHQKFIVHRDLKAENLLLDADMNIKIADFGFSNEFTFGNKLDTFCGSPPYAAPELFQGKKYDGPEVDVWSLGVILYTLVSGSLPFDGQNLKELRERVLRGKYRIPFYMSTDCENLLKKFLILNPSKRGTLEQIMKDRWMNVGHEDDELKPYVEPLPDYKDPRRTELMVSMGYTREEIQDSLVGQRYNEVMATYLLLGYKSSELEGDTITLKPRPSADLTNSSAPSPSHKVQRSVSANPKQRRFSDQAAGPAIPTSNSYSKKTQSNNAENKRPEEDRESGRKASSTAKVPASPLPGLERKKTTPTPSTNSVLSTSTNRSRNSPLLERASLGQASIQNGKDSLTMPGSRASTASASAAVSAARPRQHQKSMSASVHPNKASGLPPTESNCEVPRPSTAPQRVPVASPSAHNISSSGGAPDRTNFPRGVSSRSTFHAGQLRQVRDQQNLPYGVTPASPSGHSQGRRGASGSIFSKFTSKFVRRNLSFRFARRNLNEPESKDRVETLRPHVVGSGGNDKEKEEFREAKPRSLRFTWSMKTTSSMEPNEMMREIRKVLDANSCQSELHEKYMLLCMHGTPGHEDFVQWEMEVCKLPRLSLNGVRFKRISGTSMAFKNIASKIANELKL

Sequence of Fibroblast growth factor receptor 3 (Homo sapiens), P22607 [G697C] (P22607 whole entry G697C): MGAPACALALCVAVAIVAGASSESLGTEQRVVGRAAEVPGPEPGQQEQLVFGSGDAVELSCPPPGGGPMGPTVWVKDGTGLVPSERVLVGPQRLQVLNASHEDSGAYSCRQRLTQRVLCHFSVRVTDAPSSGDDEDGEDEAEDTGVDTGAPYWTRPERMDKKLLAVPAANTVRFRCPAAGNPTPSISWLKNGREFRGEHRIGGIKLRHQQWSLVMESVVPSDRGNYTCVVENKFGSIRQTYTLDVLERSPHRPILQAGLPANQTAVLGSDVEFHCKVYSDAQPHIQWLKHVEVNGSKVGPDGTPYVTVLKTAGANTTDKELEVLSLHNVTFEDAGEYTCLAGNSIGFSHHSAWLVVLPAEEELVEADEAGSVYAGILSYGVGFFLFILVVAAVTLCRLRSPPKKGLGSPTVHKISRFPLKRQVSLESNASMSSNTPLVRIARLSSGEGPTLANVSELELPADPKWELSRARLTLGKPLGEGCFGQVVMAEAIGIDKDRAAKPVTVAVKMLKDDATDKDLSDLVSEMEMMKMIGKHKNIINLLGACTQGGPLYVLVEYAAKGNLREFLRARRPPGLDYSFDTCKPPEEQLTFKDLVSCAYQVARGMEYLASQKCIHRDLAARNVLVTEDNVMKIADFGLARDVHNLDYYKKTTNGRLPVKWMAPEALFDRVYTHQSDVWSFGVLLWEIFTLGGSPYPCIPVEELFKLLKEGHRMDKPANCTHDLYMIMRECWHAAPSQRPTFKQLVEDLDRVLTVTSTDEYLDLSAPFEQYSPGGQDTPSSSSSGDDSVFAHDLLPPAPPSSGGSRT
Sequence of Fibroblast growth factor receptor 3 (P22607 23-806 limits assumed): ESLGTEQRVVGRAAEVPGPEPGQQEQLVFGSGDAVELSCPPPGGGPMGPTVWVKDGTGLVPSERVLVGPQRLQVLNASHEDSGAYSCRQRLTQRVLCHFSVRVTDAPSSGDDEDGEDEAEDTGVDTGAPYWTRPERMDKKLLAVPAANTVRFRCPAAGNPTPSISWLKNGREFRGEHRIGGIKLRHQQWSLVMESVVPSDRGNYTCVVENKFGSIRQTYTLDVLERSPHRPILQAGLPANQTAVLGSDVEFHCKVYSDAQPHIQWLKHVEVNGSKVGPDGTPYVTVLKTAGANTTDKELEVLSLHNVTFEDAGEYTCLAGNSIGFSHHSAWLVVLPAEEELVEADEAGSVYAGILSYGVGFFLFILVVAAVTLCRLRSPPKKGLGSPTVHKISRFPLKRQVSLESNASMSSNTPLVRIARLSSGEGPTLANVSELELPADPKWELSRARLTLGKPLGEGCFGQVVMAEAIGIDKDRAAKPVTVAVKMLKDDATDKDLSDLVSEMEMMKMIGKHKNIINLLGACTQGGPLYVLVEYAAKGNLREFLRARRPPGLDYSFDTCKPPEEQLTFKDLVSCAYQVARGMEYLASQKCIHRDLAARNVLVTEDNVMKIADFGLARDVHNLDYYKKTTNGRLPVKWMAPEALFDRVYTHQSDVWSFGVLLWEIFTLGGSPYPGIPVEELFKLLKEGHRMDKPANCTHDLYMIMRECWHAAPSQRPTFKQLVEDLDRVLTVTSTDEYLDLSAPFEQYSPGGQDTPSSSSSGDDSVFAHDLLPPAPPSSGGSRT

SMILES: O=C(NOC[C@H](O)CO)c1ccc(F)c(F)c1Nc1ccc(I)cc1F
- % of control [1]: 88%
- % of control [2]: 100%

SMILES: CC[C@@H]1[C@H](F)C(=O)N[C@@H]1COc1nccc2cc(C(N)=O)c(OC)cc12 [ZIMLOVISERTIB]
- % of inhibition [3]: -5.07%

SMILES: CN(C)C/C=C/C(=O)Nc1ccc(C(=O)N2CCCC(Nc3ncc(Cl)c(-c4c[nH]c5ccccc45)n3)C2)cc1 (stereo unspecified)
- % of control [4]: 73%

SMILES: C=CC(=O)Nc1cc(-n2c(=O)ccc3cnc4ccc(-c5ccc(NS(C)(=O)=O)cc5)cc4c32)ccc1C
- % of control ([5]; at 1 µM): 100%
- % of control ([5]; at 10 µM): 100%

SMILES: CCc1cccc(CC)c1NC(=O)c1nn(C)c2c1CCc1cnc(Nc3ccc(C(=O)NC4CCN(C)CC4)cc3OC(F)(F)F)nc1-2
- IC50 [6]: > 10 µM

SMILES: CCn1c(-c2nc3cc(C(=O)N4CCCC(N)C4)ccc3n2C)cc2ccccc21 (stereo unspecified)
- pXC50 [7]: 4.8 M

SMILES: CNC(=O)Nc1ccc(-c2nc(N3CC4CCC(C3)O4)c3cnn(C4CCC5(CC4)OCCO5)c3n2)cc1
- % of inhibition [8]: 14%

SMILES: Cn1cc(-n2cnc3c(NCc4nc5cc(Cl)c(Cl)cc5[nH]4)nc(N4CCOCC4)nc32)cn1
- % of inhibition [9]: -4.81%
- % of control [10]: 5.56%
